Tested on: fatty tissue
Test: administration of solutions to fatty tissue in aesthetic treatment of cellulite by lipotomy
Assay type: in vivo
Details: added to solution of approximately from 20 to 90 mOsm/l

Molecule | efficacy of a highly hypotonic lipotomy solution in the destruction of fatty tissue
O=C(O)Cc1cc(I)c(Oc2ccc(O)c(I)c2)c(I)c1 [tiratricol, triiodothyroacetic acid] | increased the efficacy
phosphatidylcholine | increased the efficacy

Reference: US20060233893A1, “Aqueous solutions for the reduction of fatty tissue” (priority 2004, published 2006)
